Structures can show the parent of a compound that is named as a salt. Where two headings read alike, the source gives them in different places.
Legend:
h P2X2/3 = target: T1, h P2X2/3 (Homo sapiens, UniProt P56373+Q9UBL9); test: In vitro electrophysiology assay for P2X2/3 (same protocol, 10 μM ATP agonist); type: cell-based; conditions: Table 3, mean current seven seconds after agonist, read-out: h P2X2/3 (pIC50 range of activity) (converted)
T1 construct: host or cells: cells not described; same protocol as the P2X3 assay
T1 sequence (P56373 1-397): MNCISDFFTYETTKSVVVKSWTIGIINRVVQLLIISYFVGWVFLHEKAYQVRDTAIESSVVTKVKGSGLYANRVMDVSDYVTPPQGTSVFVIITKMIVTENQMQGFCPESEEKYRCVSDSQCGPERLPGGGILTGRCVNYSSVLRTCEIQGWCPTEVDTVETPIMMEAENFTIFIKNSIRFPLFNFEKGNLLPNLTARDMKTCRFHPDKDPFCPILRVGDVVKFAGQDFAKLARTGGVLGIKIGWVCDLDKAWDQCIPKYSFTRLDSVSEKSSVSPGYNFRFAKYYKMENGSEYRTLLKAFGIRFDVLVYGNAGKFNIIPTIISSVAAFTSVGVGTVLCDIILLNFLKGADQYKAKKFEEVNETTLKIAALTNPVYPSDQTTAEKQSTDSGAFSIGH
T1 sequence (Q9UBL9 1-471): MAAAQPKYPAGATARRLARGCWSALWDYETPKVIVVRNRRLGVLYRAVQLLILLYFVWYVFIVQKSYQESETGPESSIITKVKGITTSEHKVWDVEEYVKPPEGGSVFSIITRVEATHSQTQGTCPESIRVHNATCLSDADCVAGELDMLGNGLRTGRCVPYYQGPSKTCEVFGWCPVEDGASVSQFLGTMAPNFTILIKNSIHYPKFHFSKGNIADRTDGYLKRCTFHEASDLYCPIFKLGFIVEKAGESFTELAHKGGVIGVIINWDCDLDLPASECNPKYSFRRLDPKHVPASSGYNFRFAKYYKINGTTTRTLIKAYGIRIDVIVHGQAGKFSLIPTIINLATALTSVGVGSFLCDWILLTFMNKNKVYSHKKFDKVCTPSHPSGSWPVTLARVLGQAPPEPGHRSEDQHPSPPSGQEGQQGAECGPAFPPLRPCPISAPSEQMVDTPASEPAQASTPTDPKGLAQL
Experimental: Cells expressing P2X3 receptors were grown according to standard practice and maintained at 37° C. in a 5% humidified CO2 atmosphere. The cells were seeded into T175 flask 2 days prior to the day of the assay and dissociated from the flasks using TrypLE when grown to confluence of 80-90%. The dissociated cells were resuspended in serum free media at a cell density of 3×10^6 cells/ml and loaded onto the Sophion Qube automated patch-clamp system. The extracellular assay buffer contained 145 mM NaCl, 4 mM KCl, 2 mM CaCl2, 1 mM MgCl2, 10 mM HEPES, and 10 mM glucose at pH 7.4. The intracellular assay solution contained 140 mM CsF, 10 mM NaCl, 10 mM EGTA, 10 mM HEPES at pH 7.2. Agonist stock solutions were prepared in H2O and diluted in bath solution prior to use. All antagonists were prepared as 10 mM stock solutions in DMSO and diluted in bath solution prior to use. All experiments were performed under the whole-cell patch clamp configuration at room temperature with 384 individual cells being voltage clamped at −60 mV simultaneously on the Sophion Qube instrument. Two baseline responses were established with the application of α,β-MeATP (800 nM), with the subsequent agonist applications being washed out using extracellular assay buffer containing 0.5 U/ml apyrase. Following the second agonist application, antagonist was incubated in the absence of α,β-MeATP for 10 minutes. After antagonist preincubation, 800 nM α,β-MeATP and antagonist were co-administered to determine the inhibitory effect of the antagonist. One concentration of an antagonist was assessed against a single cell, with different concentrations of the antagonist applied to other cells on the 384 recording substrate. The control P2X3 current amplitude was taken from the peak current amplitude from the second agonist response prior to preincubation with antagonist. The peak P2X3 current amplitude in the presence of antagonist was used to calculate the inhibitory effect at each concentration of the antagonist according to the following equation: […]
In vitro Electrophysiology Assay for P2X2/3
Representative compound of the present invention have been also tested for P2X2/3 receptor.
The same assay protocol was used for the P2X2/3 assay as the P2X3 assay with two modifications: 1) 10 μM ATP was used as the agonist; and 2) the mean current amplitude was measured seven seconds after the application of agonist.

h P2X3 = target: T2, h P2X3 (Homo sapiens, UniProt P56373); test: In vitro electrophysiology assay for P2X3 (automated whole-cell patch clamp, α,β-MeATP agonist); type: cell-based; conditions: 800 nM α,β-MeATP, peak current, read-out: h P2X3 (pIC50 range of activity) (converted)
T2 sequence (P56373 1-397): T1 sequence (P56373 1-397)
Experimental: In Vitro Electrophysiology Assay for P2X3
Cells expressing P2X3 receptors were grown according to standard practice and maintained at 37° C. in a 5% humidified CO2 atmosphere. The cells were seeded into T175 flask 2 days prior to the day of the assay and dissociated from the flasks using TrypLE when grown to confluence of 80-90%. The dissociated cells were resuspended in serum free media at a cell density of 3×10^6 cells/ml and loaded onto the Sophion Qube automated patch-clamp system. The extracellular assay buffer contained 145 mM NaCl, 4 mM KCl, 2 mM CaCl2, 1 mM MgCl2, 10 mM HEPES, and 10 mM glucose at pH 7.4. The intracellular assay solution contained 140 mM CsF, 10 mM NaCl, 10 mM EGTA, 10 mM HEPES at pH 7.2. Agonist stock solutions were prepared in H2O and diluted in bath solution prior to use. All antagonists were prepared as 10 mM stock solutions in DMSO and diluted in bath solution prior to use. All experiments were performed under the whole-cell patch clamp configuration at room temperature with 384 individual cells being voltage clamped at −60 mV simultaneously on the Sophion Qube instrument. Two baseline responses were established with the application of α,β-MeATP (800 nM), with the subsequent agonist applications being washed out using extracellular assay buffer containing 0.5 U/ml apyrase. Following the second agonist application, antagonist was incubated in the absence of α,β-MeATP for 10 minutes. After antagonist preincubation, 800 nM α,β-MeATP and antagonist were co-administered to determine the inhibitory effect of the antagonist. One concentration of an antagonist was assessed against a single cell, with different concentrations of the antagonist applied to other cells on the 384 recording substrate. The control P2X3 current amplitude was taken from the peak current amplitude from the second agonist response prior to preincubation with antagonist. The peak P2X3 current amplitude in the presence of antagonist was used to calculate the inhibitory effect at each concentration of the antagonist according to the following equation:
Percentage inhibition of P2X3=(P2X3 control peak amplitude−P2X3 antagonist peak amplitude)/P2X3 control peak amplitude)*100
Concentration-response curves were constructed from ten different concentrations with each concentration of antagonist tested on at least two individual cells. The concentration of the antagonist to inhibit P2X3 current by 50% (IC50) was determined by fitting the data with the following equation:
Y=a+[(b−a)/(1+10^((log c−x)d)]
Where ‘a’ is minimum response, ‘b’ is maximum response, ‘c’ is IC50 and ‘d’ is Hill slope.

Compound	IC50 (h P2X2/3) [nM]	IC50 (h P2X3; Table 2) [nM]	IC50 (h P2X3; Table 3) [nM]
Cc1cnc(-c2cc(OCC(F)F)c3ncnc(NCc4ccc(C)nn4)c3c2)nc1 [Example 9, 8-(2,2-difluoroethoxy)-N-[(6-methylpyridazin-3-yl)methyl]-6-(5-methylpyrimidin-2-yl)quinazolin-4-amine]	316 to 3160	< 316	< 316
COC(=O)C1(NC(=O)COc2cc(-c3ccc(F)cc3)cc3c(N[C@H](C)c4cnc(C(F)(F)F)nc4)ncnc23)CC1 [Example 43, Methyl (R)-1-(2-((6-(4-fluorophenyl)-4-((1-(2-(trifluoromethyl)pyrimidin-5-yl)ethyl)amino)quinazolin-8-yl)oxy)acetamido) cyclopropane-1-carboxylate]	3160 to 31600	316 to 3160	316 to 3160
Cc1nc([C@@H](C)Nc2ncnc3c(S(=O)(=O)N(C)C)cc(-c4ccc(F)cc4)cc23)no1 (stereo in doubt) [Example 15, 6-(4-fluorophenyl)-N,N-dimethyl-4-((1-(5-methyl-1,2,4-oxadiazol-3-yl)ethyl)amino)quinazoline-8-sulfonamide]	316 to 3160	< 316	< 316
C[C@@H](Nc1ncnc2c(OCC3(C(=O)O)CCNCC3)cc(-c3ccc(F)cc3)cc12)c1cnc(C(F)(F)F)nc1 [Example 47, (R)-4-(((6-(4-fluorophenyl)-4-((1-(2-(trifluoromethyl)pyrimidin-5-yl)ethyl)amino)quinazolin-8-yl)oxy)methyl)piperidine-4-carboxylic acid hydrochloride]	3160 to 31600	316 to 3160	316 to 3160
COC(=O)N1CCC(Oc2cc(-c3ccc(F)cc3)cc3c(NCc4ccc(C)nn4)ncnc23)CC1 [Example 65, Methyl 4-[6-(4-fluorophenyl)-4-[(6-methylpyridazin-3-yl)methylamino]quinazolin-8-yl]oxypiperidine-1-carboxylate]	3160 to 31600	316 to 3160	316 to 3160
Cc1ccc([C@@H](C)Nc2ncnc3c([S+](C)[O-])cc(-c4ccc(F)cc4)cc23)nn1 (stereo partly drawn) [Example 27, 6-(4-fluorophenyl)-N-((R)-1-(6-methylpyridazin-3-yl)ethyl)-8-(methylsulfinyl)quinazolin-4-amine]	316 to 3160	< 316	< 316
COC(=O)N1CCC(COc2cc(-c3ccc(F)cc3)cc3c(NCc4ccc(C)nn4)ncnc23)C1 (centres unmarked) [Example 67, Methyl 3-[[6-(4-fluorophenyl)-4-[(6-methylpyridazin-3-yl)methylamino]quinazolin-8-yl]oxymethyl]pyrrolidine-1-carboxylate]	–	316 to 3160	–
Cc1ccc(CNc2ncnc3c(OCCOCCO)cc(-c4ccc(F)cc4)cc23)nn1 [Example 55]	–	< 316	–
Cc1ccc([C@@H](C)Nc2ncnc3c(S(=O)(=O)N4CCOCC4)cc(-c4ccc(F)cc4)cc23)nn1 [Example 10, (R)-6-(4-fluorophenyl)-N-(1-(6-methylpyridazin-3-yl)ethyl)-8-(morpholinosulfonyl)quinazolin-4-amine]	–	316 to 3160	–
Cc1ccc(-c2cc(OCC(F)F)c3ncnc(NCc4ccc(C)nn4)c3c2)nc1 [Example 8, 8-(2,2-Difluoroethoxy)-N-((6-methylpyridazin-3-yl)methyl)-6-(5-methylpyridin-2-yl) quinazolin-4-amine]	–	< 316	–
CC(=O)N[C@H]1CC[C@@H](Oc2cc(-c3ccc(F)cc3)cc3c(N[C@H](C)c4cnc(C(F)(F)F)nc4)ncnc23)CC1 [Example 32, N-((1S,4s)-4-((6-(4-fluorophenyl)-4-(((R)-1-(2-(trifluoromethyl)pyrimidin-5-yl)ethyl)amino)quinazolin-8-yl)oxy)cyclohexyl)acetamide]	–	316 to 3160	–
Cc1ccc(CNc2ncnc3c(OC4CCN(C)C4=O)cc(-c4ccc(F)cc4)cc23)nn1 (centres unmarked) [Example 56, 3-[6-(4-fluorophenyl)-4-[(6-methylpyridazin-3-yl)methylamino]quinazolin-8-yl]oxy-1-methyl-pyrrolidin-2-one]	–	316 to 3160	–
CON(C)C(=O)COc1cc(-c2ccc(F)cc2)cc2c(NCc3ccc(C)nn3)ncnc12 [Example 54, 2-[6-(4-fluorophenyl)-4-[(6-methylpyridazin-3-yl)methylamino]quinazolin-8-yl]oxy-N-methoxy-N-methyl-acetamide]	–	< 316	–
CNS(=O)(=O)c1cc(-c2ccc(F)cc2)cc2c(NC(C)c3nnc(C)s3)ncnc12 (centres unmarked) [Example 23]	–	316 to 3160	–
Cc1ccc(CNc2ncnc3c(OCc4nnc(C5CC5)s4)cc(-c4ccc(F)cc4)cc23)nn1 [Example 60, 8-[(5-cyclopropyl-1,3,4-thiadiazol-2-yl)methoxy]-6-(4-fluorophenyl)-N-[(6-methylpyridazin-3-yl)methyl]quinazolin-4-amine]	–	< 316	–
Cc1ccc(CNc2ncnc3c(OCC(=O)NCC(F)(F)F)cc(-c4ccc(F)cc4)cc23)nn1 [Example 61, 2-[6-(4-fluorophenyl)-4-[(6-methylpyridazin-3-yl)methylamino]quinazolin-8-yl]oxy-N-(2,2,2-trifluoroethyl)acetamide]	–	316 to 3160	–
Cc1ccc(CNc2ncnc3c(OCC4(C(F)(F)F)CC4)cc(-c4ccc(F)cc4)cc23)nn1 [Example 51, 6-(4-fluorophenyl)-N-[(6-methylpyridazin-3-yl)methyl]-8-[[1-(trifluoromethyl)cyclopropyl]methoxy]quinazolin-4-amine]	–	316 to 3160	–
